Bridge positions count the residues as written; N and C are the ends. Peptide text beside a SMILES is read from it.
Columns and labels:
[1] = tested on: carbapenem resistant strain of Klebsiella pneumoniae (KPC+-Kp BAA-1705 (ATCC)); assay: murine carbapenem resistant Klebsiella pneumoniae sepsis model, survival; type: in vivo, BALB/c mice; conditions: for survival (FIG. 3 left panel): 5 mg/kg i.p. 1 hour post infection, sham controls 25% survival; for Kp sepsis % survival at 5 mg/kg: BALB/c mice, i.p. infection, peptide 5 mg/kg i.p. 1 hour post infection; for survival (FIG. 3 right panel): 0.5 mg/kg i.p. 1 hour post infection; for therapeutic effect on survival (FIG. 4): 1 hour post infection
Procedure: BALB/c mice were infected interperitoneally with 3-5×10^8 CFU of a carbapenem resistant strain of Klebsiella pneumoniae (KPC+-Kp BAA-1705 (ATCC)) and treated with peptide one hour post infection. […] P-values were determined by Fisher's exact test. The therapeutic peptides were provided intraperitoneally 1 hour after induction of sepsis.
BALB/c mice were infected i.p. with KPC+-Kp BAA-1705 (ATCC) and treated with a single dose of MTD12813, at the levels indicated, 1 hour post infection. The significance (P-values determined by Fisher's exact test) of the therapeutic effect for each dose is shown. […] It should be appreciated that 0.5 mg/kg is the lowest dose tested, and that Inventors believe that MTD12813 is effective at still lower doses, for example down to 0.25 mg/kg, […], or 10 μg/kg.

TACE = TACE (Homo sapiens, UniProt P78536); assay: inhibition of TACE; type: biochemical
TNF-α (TNF) release = assay: suppression of TNF-α (TNF) release; type: cell-based

Chain of TACE (P78536 215-824): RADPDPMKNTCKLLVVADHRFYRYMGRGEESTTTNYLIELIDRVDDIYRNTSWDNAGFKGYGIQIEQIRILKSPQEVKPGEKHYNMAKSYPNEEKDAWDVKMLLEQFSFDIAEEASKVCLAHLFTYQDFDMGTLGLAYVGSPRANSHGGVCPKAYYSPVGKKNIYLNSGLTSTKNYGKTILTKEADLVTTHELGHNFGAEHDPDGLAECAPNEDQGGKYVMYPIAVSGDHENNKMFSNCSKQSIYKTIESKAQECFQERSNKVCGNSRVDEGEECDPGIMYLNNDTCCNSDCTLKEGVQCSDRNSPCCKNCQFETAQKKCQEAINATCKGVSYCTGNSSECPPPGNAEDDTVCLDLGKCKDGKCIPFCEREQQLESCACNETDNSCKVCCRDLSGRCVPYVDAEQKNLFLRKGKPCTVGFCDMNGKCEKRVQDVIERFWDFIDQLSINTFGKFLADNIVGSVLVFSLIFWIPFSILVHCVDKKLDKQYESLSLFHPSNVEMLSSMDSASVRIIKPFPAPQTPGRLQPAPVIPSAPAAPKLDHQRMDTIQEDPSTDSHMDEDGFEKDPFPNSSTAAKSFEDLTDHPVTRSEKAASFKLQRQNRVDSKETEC

Molecule	survival (FIG. 3 left panel) [1]	Kp sepsis % survival at 5 mg/kg [1]	IC50 (TACE)	TNF % suppression at 5 mg/kg (TNF-α (TNF) release)	survival (FIG. 3 right panel) [1]	therapeutic effect on survival (FIG. 4) ([1]; single dose 0.5 mg/kg, lowest dose tested)	therapeutic effect on survival (FIG. 4) ([1]; single dose 1.25 mg/kg)
RTD-1: naturally occurring rhesus monkey θ-defensin, cyclic octadecapeptide with 3 disulfide bonds (cyclo(GFCRCLCRRGVCRCICTR); disulfide (positions not given here); not fully specified (bridges); also: three disulfide bonds, pairing not given here; listed as Macaca mulatta) [reference compound]	70%						
CC(C)C[C@@H]1NC(=O)[C@@H]2CSSC[C@H](NC(=O)[C@H](CO)NC(=O)[C@@H]3CSSC[C@H](NC1=O)C(=O)N[C@@H](CCCNC(=N)N)C(=O)N[C@@H](CCCNC(=N)N)C(=O)NCC(=O)N[C@@H](C(C)C)C(=O)N3)C(=O)N[C@@H](CCCNC(=N)N)C(=O)N[C@@H](CCCNC(=N)N)C(=O)N[C@@H](CCCNC(=N)N)C(=O)N[C@@H](Cc1ccccc1)C(=O)N2 [MTD12810] (cyclo(CLCRRGVCSCRRRF); disulfide 1-10, 3-8)		0%	1540 nM	2.0%			
CC[C@H](C)[C@@H]1NC(=O)[C@@H]2CSSC[C@H](NC(=O)[C@H](CO)NC(=O)[C@@H]3CSSC[C@H](NC1=O)C(=O)N[C@@H](CCCNC(=N)N)C(=O)N[C@@H](CCCNC(=N)N)C(=O)NCC(=O)N[C@@H](C(C)C)C(=O)N3)C(=O)N[C@@H](CCCNC(=N)N)C(=O)N[C@@H](CCCNC(=N)N)C(=O)N[C@@H](CCCNC(=N)N)C(=O)N[C@@H](Cc1ccccc1)C(=O)N2 [MTD12811] (cyclo(CICRRGVCSCRRRF); disulfide 1-10, 3-8)		30%	1890 nM	37.5%			
CC[C@H](C)[C@@H]1NC(=O)[C@@H]2CSSC[C@H](NC(=O)[C@H](CC(C)C)NC(=O)[C@@H]3CSSC[C@H](NC1=O)C(=O)N[C@@H](CCCNC(=N)N)C(=O)N[C@@H](CCCNC(=N)N)C(=O)N[C@@H](CCCNC(=N)N)C(=O)N[C@@H](Cc1ccccc1)C(=O)N3)C(=O)N[C@@H](CCCNC(=N)N)C(=O)N[C@@H](CCCNC(=N)N)C(=O)NCC(=O)N[C@@H](C)C(=O)N2 [MTD1286] (cyclo(ACICRRRFCLCRRG); disulfide 2-11, 4-9)			305 nM				
CC(C)[C@@H]1NC(=O)CNC(=O)[C@H](CCCNC(=N)N)NC(=O)[C@H](CCCNC(=N)N)NC(=O)[C@@H]2CSSC[C@H](NC1=O)C(=O)N[C@@H](C)C(=O)N[C@H]1CSSC[C@H](NC(=O)[C@H](Cc3ccccc3)NC(=O)[C@H](CCCNC(=N)N)NC(=O)[C@H](CCCNC(=N)N)NC(=O)[C@H](CCCNC(=N)N)NC1=O)C(=O)N[C@@H](C)C(=O)N2 [MTD1289] (cyclo(ACRRGVCACRRRFC); disulfide 2-7, 9-14)			1670 nM				
CC[C@H](C)[C@@H]1NC(=O)[C@@H]2CSSC[C@H](NC(=O)[C@H]([C@@H](C)CC)NC(=O)[C@@H]3CSSC[C@H](NC1=O)C(=O)N[C@@H](CCCNC(=N)N)C(=O)N[C@@H](CCCNC(=N)N)C(=O)NCC(=O)N[C@@H](C(C)C)C(=O)N3)C(=O)N[C@@H](CCCNC(=N)N)C(=O)N[C@@H](CCCNC(=N)N)C(=O)NCC(=O)N[C@@H](C(C)C)C(=O)N2 [MTD1281] (cyclo(CICRRGVCICRRGV); disulfide 1-10, 3-8)		40%	347 nM	83.0%			
CC(C)C[C@@H]1NC(=O)[C@@H]2CSSC[C@H](NC(=O)[C@H](CC(C)C)NC(=O)[C@@H]3CSSC[C@H](NC1=O)C(=O)N[C@@H](CCCNC(=N)N)C(=O)N[C@@H](CCCNC(=N)N)C(=O)NCC(=O)N[C@@H](C(C)C)C(=O)N3)C(=O)N[C@@H](CCCNC(=N)N)C(=O)N[C@@H](CCCNC(=N)N)C(=O)NCC(=O)N[C@@H](C(C)C)C(=O)N2 [MTD1284] (cyclo(CLCRRGVCLCRRGV); disulfide 1-10, 3-8)		53.3%	732 nM	78.8%			
CC[C@H](C)[C@@H]1NC(=O)[C@@H]2CSSC[C@H](NC(=O)[C@H](CO)NC(=O)[C@@H]3CSSC[C@H](NC1=O)C(=O)N[C@@H](CCCNC(=N)N)C(=O)N[C@@H](CCCNC(=N)N)C(=O)N[C@@H](CCCNC(=N)N)C(=O)N[C@@H](Cc1ccccc1)C(=O)N3)C(=O)N[C@@H](CCCNC(=N)N)C(=O)N[C@@H](CCCNC(=N)N)C(=O)NCC(=O)N[C@@H](C(C)C)C(=O)N2 [MTD12812] (cyclo(CICRRRFCSCRRGV); disulfide 1-10, 3-8)		20%	1100 nM	14.9%			
CC(C)[C@@H]1NC(=O)CNC(=O)[C@H](CCCNC(=N)N)NC(=O)[C@H](CCCNC(=N)N)NC(=O)[C@@H]2CSSC[C@H](NC1=O)C(=O)N[C@@H](C)C(=O)N[C@H]1CSSC[C@H](NC(=O)[C@H](Cc3ccccc3)NC(=O)[C@H](CCCNC(=N)N)NC(=O)[C@H](CCCNC(=N)N)NC(=O)[C@H](C)NC1=O)C(=O)N[C@@H](C)C(=O)N2 [MTD12815] (cyclo(ACARRFCACRRGVC); disulfide 2-7, 9-14)			1180 nM				
CC[C@H](C)[C@@H]1NC(=O)[C@@H]2CSSC[C@H](NC(=O)[C@H](CC(C)C)NC(=O)[C@@H]3CSSC[C@H](NC1=O)C(=O)N[C@@H](CCCNC(=N)N)C(=O)N[C@@H](CCCNC(=N)N)C(=O)N[C@@H](CCCNC(=N)N)C(=O)N[C@@H](Cc1ccccc1)C(=O)N3)C(=O)N[C@@H](CCCNC(=N)N)C(=O)N[C@@H](CCCNC(=N)N)C(=O)NCC(=O)N[C@@H](C(C)C)C(=O)N2 [MTD1280] (cyclo(CICRRRFCLCRRGV); disulfide 1-10, 3-8)		80-100%	1280 nM	98.7%	essentially identical to that of the sham control		
CC[C@H](C)[C@@H]1NC(=O)[C@@H]2CSSC[C@H](NC(=O)[C@H]([C@@H](C)CC)NC(=O)[C@@H]3CSSC[C@H](NC1=O)C(=O)NCC(=O)N[C@@H](CCCNC(=N)N)C(=O)NCC(=O)N[C@@H](C(C)C)C(=O)N3)C(=O)N[C@@H](CCCNC(=N)N)C(=O)N[C@@H](CCCNC(=N)N)C(=O)N[C@@H](CCCNC(=N)N)C(=O)N[C@@H](C(C)C)C(=O)N2 [MTD12813] (cyclo(CGRGVCICRRRVCI); disulfide 1-6, 8-13)	complete protection	100%	546 nM	95.6%	~90%	highly effective	as effective as 5 mg/kg
